From patent publication US20060286624A1, “Method for identifying selective growth inhibitors” (priority 2003, published 2006)

What was measured:
[1] = test system: DH5 (sensitive strain) co-seeded with pKS-DH5 (resistant strain); test: Co-seeded agar plate assay (Assay Protocol A), DH5 sensitive / pKS-DH5 resistant strain; assay type: cell-based, Escherichia coli; settings: Run 6, FIG. 3; co-seeding ratio 500:1; 100 mg/mL, 10 μL in DMSO; 37° C., 12 to 18 hours
Procedure: (§1) Each of a pair of bacterial strains, one sensitive and one resistant to a particular antibacterial agent, was grown by inoculating 25 mL of LB broth (i.e., 10 g of tryptone, 5 g of yeast extract, and 10 g NaCl per liter of water) with 1 to 5 colonies in an Erlenmeyer flask, and then holding the mixture overnight at a temperature of 37° C. while agitating the mixture via rotary shaking (200 rpm). Each batch was allowed to cool to room temperature (about 25° C.). Following OD measurements at λ=600 nm to ensure that both strains have grown to similar densities (i.e., a variation of 10% or less), a sample from the batch of the “sensitive” strain was diluted 10-fold in LB growth medium, and a sample of the “resistant” strain was diluted 500-fold or more to provide a final ratio (i.e., co-seeding ratio) of 50 or more sensitive cells to 1 resistant cell. A 750 μL sample of each of the diluted strains was then mixed into 20 mL of molten agar/growth medium agar (melt temperature=48° C.) (KD Medical's Cat. No. BLF-7070) and poured into rectangular 8.5×12.5 cm Omnitray dishes (Nalge NUNC Intl. Cat No. 242811). Wells were cast by applying custom-made pins (about 3 mm in diameter and 5 mm deep; Nalge NUNC Intl.) into the surface of the molten mixture (48 or 96 pins arrayed over the 8.5×12.5 cm surface) and then allowing the mixture to harden to provide an assay plate. […]

[2] = test system: MSSA (sensitive strain) co-seeded with MRSA (resistant strain); test: Co-seeded agar plate assay (Assay Protocol A), MSSA sensitive / MRSA resistant strain; assay type: cell-based, Staphylococcus aureus; settings: co-seeding ratio 500:1, 10 μL in DMSO, 37° C., 12 to 18 hours
Procedure: Each of a pair of bacterial strains, one sensitive and one resistant to a particular antibacterial agent, was grown by inoculating 25 mL of LB broth (i.e., 10 g of tryptone, 5 g of yeast extract, and 10 g NaCl per liter of water) with 1 to 5 colonies in an Erlenmeyer flask, and then holding the mixture overnight at a temperature of 37° C. while agitating the mixture via rotary shaking (200 rpm). Each batch was allowed to cool to room temperature (about 25° C.). Following OD measurements at λ=600 nm to ensure that both strains have grown to similar densities (i.e., a variation of 10% or less), a sample from the batch of the “sensitive” strain was diluted 10-fold in LB growth medium, and a sample of the “resistant” strain was diluted 500-fold or more to provide a final ratio (i.e., co-seeding ratio) of 50 or more sensitive cells to 1 resistant cell. A 750 μL sample of each of the diluted strains was then mixed into 20 mL of molten agar/growth medium agar (melt temperature=48° C.) (KD Medical's Cat. No. BLF-7070) and poured into rectangular 8.5×12.5 cm Omnitray dishes (Nalge NUNC Intl. Cat No. 242811). Wells were cast by applying custom-made pins (about 3 mm in diameter and 5 mm deep; Nalge NUNC Intl.) into the surface of the molten mixture (48 or 96 pins arrayed over the 8.5×12.5 cm surface) and then allowing the mixture to harden to provide an assay plate. Test samples dissolved in DMSO were added to the wells, after which the assay plate was incubated at 37° C. for a time sufficient to allow visual detection of cell colonies (i.e., 12 to 18 hours). The plates were then examined for zones of growth and inhibition under ambient light.
The tests set forth in Table 1 were conducted in the manner described in Assay Protocol A, except that in the case of the streptomycin-resistant strain, the inoculated liquid growth medium also contained 25 ug/mL of streptomycin in order to ensure that resistance was not lost during growth.

[3] = test system: MRSA (sensitive strain) co-seeded with CRMRSA (resistant strain); test: Co-seeded agar plate assay (Assay Protocol A), MRSA sensitive / CRMRSA resistant strain; assay type: cell-based, Staphylococcus aureus; settings: co-seeding ratio 100:1, 10 μL in DMSO, 37° C., 12 to 18 hours
Procedure: as §1

[4] = test system: S-eEF2 (sensitive strain) co-seeded with HS-eEF2 (resistant strain); test: Co-seeded agar plate assay (Assay Protocol B), S-eEF2 sensitive / HS-eEF2 resistant yeast strain; assay type: cell-based, Saccharomyces cerevisiae; settings: co-seeding ratio 50:1, DMSO solution, overnight at 29° C.
Procedure: Assay Protocol B The S. cerevisiae yeast strains, S-eEF2 and HS-eEF2, were each grown overnight from a single colony in 5 mL YPAD (i.e., 1% yeast extract, 2% peptone, 0.004% adenine sulfate, and 2% glucose) in an Erlenmeyer flask at 29° C. with shaking on a roller drum. The sensitive strain S-eEF2 was diluted with additional YPAD to give a final absorbance at λ=600 nm of 0.01 (control =YPAD), and the resistant strain HS-eEF2 was diluted to an absorbance at λ=600 nm of 0.0002. Each strain (5 mL) was added to a glass test tube containing 25 mL of molten YPAD agar equilibrated at 50° C. The mixture was then stirred briefly and poured onto sterile disposable 86×128-mm plastic dishes (NUNC Cat. No. 242811). The dishes were cooled for 5 minutes at room temperature, dried in a hood, and then stored for no more than 2 days until ready for treatment with test substances. Test substances were dissolved in the appropriate solvent and a suitable portion of the solution was spotted on the co-seeded plates. The plates were incubated overnight at 29° C., and then inspected visually for the appearance of zones of growth and inhibition, and particularly for the appearance of resistant colonies capable of growing in the presence of the test substances.
The tests set forth in Table 2 were conducted in the manner described in Assay Protocol B.

[5] = test system: ATCC 9637 (sensitive strain) co-seeded with MB941 (resistant strain); test: Co-seeded agar plate assay (Assay Protocol A), ATCC 9637 sensitive / MB941 resistant strain; assay type: cell-based, E. coli; settings: co-seeding ratio 1000:1, 10 μL in DMSO, 37° C., 12 to 18 hours
Procedure: as §1

CC1(C)S[C@@H]2[C@H](NC(=O)[C@H](N)c3ccccc3)C(=O)N2[C@H]1C(=O)O [ampicillin]
zone of growth inhibition (appearance, resistant colonies) [1]: isolated resistant colonies within a zone that otherwise exhibits no growth

CO[C@@]1(NC(=O)Cc2cccs2)C(=O)N2C(C(=O)O)=C(COC(N)=O)CS[C@@H]21 [cefoxitin]
zone of growth inhibition (appearance, resistant colonies) ([2]; Run 3, FIG. 1C, 500 μg/mL): a multitude of resistant colonies throughout the inhibition zone

O=C(N[C@H](CO)[C@H](O)c1ccc([N+](=O)[O-])cc1)C(Cl)Cl [chloramphenicol]
zone of growth inhibition (appearance, resistant colonies) ([2]; Run 1, FIG. 1A, 100 μg/mL): visually contains no resistant colonies | zone of growth inhibition (appearance, resistant colonies) ([3]; Run 5, FIG. 2B, 1 mg/mL): zone of no growth containing isolated colonies of resistant bacteria

O=C(O)c1cn(C2CC2)c2cc(N3CCNCC3)c(F)cc2c1=O [ciproflaxin, ciprofloxacin]
zone of growth inhibition (appearance, resistant colonies) ([3]; Run 4, FIG. 2A, 50 μg/mL): clear zone of no growth

CC(=O)O[C@@H]1C[C@]23C4=CC[C@@]5(C)[C@H](C(=O)O)[C@@](C)([C@H](C)C(C)C)CC[C@]5(C)[C@H]4CC[C@H]2[C@@](C)(COC3O)[C@H]1O[C@@H]1O[C@H](CO)[C@@H](O)[C@H](O)[C@H]1O (stereo partly shown) [enfumafungin]
zone of growth inhibition (appearance, resistant colonies) ([4]; Run 9, FIG. 5A, 0.2 μg spotted): visually clear zone exhibiting no growth of either the sensitive or the resistant strain

CO[C@H]1[C@@H](O)[C@H](O)[C@H](OC[C@@]23C[C@@H]4[C@H](C)CC[C@H]4[C@@]4(C=O)CC2C=C(C(C)C)[C@@]34C(=O)O)O[C@@H]1C [sordarin]
zone of growth inhibition (appearance, resistant colonies) ([4]; Run 10, FIG. 5B, 2 μg spotted): zone of growth inhibition in which resistant colonies are present

[H]/N=C(/N)N[C@H]1[C@H](O)[C@@H](O)[C@H](O[C@@H]2O[C@@H](C)[C@](O)(C=O)[C@H]2O[C@@H]2O[C@@H](CO)[C@H](O)[C@@H](O)[C@@H]2NC)[C@@H](N/C(N)=N\[H])[C@@H]1O [streptomycin]
zone of growth inhibition (appearance, resistant colonies) ([2]; Run 2, FIG. 1B, 1 mg/mL): a few colonies at or near the border of the inhibition zone | zone of growth inhibition (appearance, resistant colonies) ([5]; Run 8, FIG. 4B, 500 μg/mL): zone of no growth containing isolated colonies of resistant bacteria

CN(C)[C@@H]1C(O)=C(C(N)=O)C(=O)[C@@]2(O)C(O)=C3C(=O)c4c(O)cccc4[C@@](C)(O)[C@H]3C[C@@H]12 [tetracylin, tetracyclin]
zone of growth inhibition (appearance, resistant colonies) ([5]; Run 7, FIG. 4A, 1 mg/mL): clear zone of no growth
